Experimental data as given in patent US10065950B2, “Substituted thiazoles as HIV integrase inhibitors” (Japan Tobacco Inc., priority 2010, dated 2018).

Target: HIV-1 pNL4-3 integrase (Human immunodeficiency virus type 1 group M subtype B (isolate NY5) (HIV-1), UniProt P12497)
Assay: Determination of enzyme (HIV integrase) inhibitory activity
Type: biochemical
Settings: calculated from inhibition rate (fluorescence)
Procedure: The following explains evaluation methods of the HIV integrase inhibitory activity of the compound of the present invention.
A full-length gene sequence (Accession No.: M19921) of HIV-1 pNL4-3 integrase was inserted into restriction enzyme Nde I and Xho I sites of plasmid pET21a(+) (manufactured by Novagen) to construct an integrase expression vector pET21a-IN-Wild type.
Escherichia coli recombinant BL21(DE3) transformed with plasmid pET21a-IN-Wild type obtained in (i) was shake cultured at 30° C. in a liquid medium containing ampicillin. When the culture reached the logarithmic growth phase, isopropyl-β-D-thiogalactopyranoside was added to promote expression of integrase gene. The culture was continued for 5 hr to promote accumulation of the integrase protein. The recombinant E. coli was collected in pellets by centrifugal separation and preserved at −80° C.
This Escherichia coli was suspended in Lysis buffer (50 mM Tris-HCl (pH 7.6), 10 mM MgCl2, 5 mM DTT), and disrupted by repeating treatments of pressurization and depressurization, and insoluble fraction was collected by centrifugation at 4° C., 18,000 rpm for 60 min. This was suspended in Lysis buffer containing a protease inhibitor, […] and 10 mM CHAPS were added, and the mixture was stirred at 4° C. for 30 min. Water-soluble fraction was collected by centrifugation at 4° C., 9,000 rpm for 30 min. The obtained fraction was diluted with a column buffer (50 mM Tris-HCl (pH 7.6), 1 mM DTT, 10% Glycerol, 10 mM CHAPS) to 5-fold, and the mixture was applied to heparin column (HiPrep 16/10 Heparin FF column: manufactured by GE Healthcare Bio-Sciences). Using a column buffer containing 1M NaCl, a protein was eluted with 0-1M NaCl concentration gradient, and an eluted fraction containing an integrase protein was collected. The obtained fraction was diluted 5-fold with a column buffer (50 mM Tris-HCl (pH 7.6), 1 mM DTT, 10% Glycerol, 10 mM CHAPS), and the mixture was applied to cation exchange column (Mono-S column: manufactured by GE Healthcare Bio-Sciences). Using a column buffer containing 1M NaCl, a protein was eluted with 0-1M NaCl concentration gradient, and an eluted fraction containing an integrase protein was collected. The obtained fractions of the integrase protein were collected, and preserved at −80° C.
The following DNA synthesized by FASMAC was dissolved in TE buffer (10 mM Tris-hydrochloric acid (pH 8.0), 1 mM EDTA) and mixed with donor DNA, target DNA, and each complementary strand (+ and − strands) to 1 μM. The mixture was heated at 95° C. for 5 min, 80° C. for 10 min, 70° C. for 10 min, 60° C. for 10 min, 50° C. for 10 min and 40° C. for 10 min and kept at 25° C. to give a double stranded DNA, which was used for the test.
Donor DNA (+strand having biotin attached to the 5′ terminal)
Target DNA (+, − strands both having digoxigenin attached to the 3′ terminal)
The donor DNA was diluted with TE buffer to 20 nM, of which 50 μL was added to each well of streptavidin-coated black plate (manufactured by PIAS Corporation) and allowed to adsorb at 37° C. for 20 min. The plate was washed with phosphate buffer (Dulbecco's PBS, Sanko Junyaku Co., Ltd.) containing 0.1% Tween 20 and phosphate buffer. Then, an enzyme reaction mixture (70 μL), a test substance (10 μL) diluted with the enzyme reaction mixture and 0.75 μM integrase protein (10 μL) were added to each well and the mixture was reacted at 37° C. for 60 min. composition of enzyme reaction mixture: 30 mM MOPS (3-morpholinopropanesulfonic acid), 5 mM magnesium chloride, 3 mM DTT (dithiothreitol), 0.1 mg/mL BSA (bovine serum albumin), 5% glycerol, 10% DMSO (dimethyl sulfoxide), 0.01% Tween 20.
Then, 25 nM target DNA (10 μL) was added, and the mixture was reacted at 37° C. for 20 min and washed with phosphate buffer containing 0.1% Tween 20 to stop the reaction. […]

| SMILES | IC50 [nM] |
| --- | --- |
| COC[C@@H]1CN(C(C)C)C(=O)c2c(O)c(=O)c(-c3nnc(Cc4ccc(F)cc4F)s3)cn21 [Example 87] | 7.7 |
| CCNC(=O)C1(C)CN(C)C(=O)c2c(O)c(=O)c(-c3ncc(Cc4ccc(F)cc4F)s3)cn21 (stereo not drawn) [Example 153] | 5.8 |
| CCN1C(=O)c2c(O)c(=O)c(-c3nnc(Cc4ccc(F)cc4)s3)cn2C[C@H]1[C@H](C)OC [Example 332] | 12 |
| CO[C@H](C)[C@H]1CN(C(C)C)C(=O)c2c(O)c(=O)c(-c3ncc(Cc4ccc(F)cc4)s3)cn21 [Example 386] | 15 |
| COCCOC[C@@H]1Cn2cc(-c3nnc(Cc4ccc(F)cc4F)s3)c(=O)c(O)c2C(=O)N1CC(C)C [Example 48] | 6.9 |
| COC[C@H]1[C@H](C)n2cc(-c3nnc(Cc4ccc(F)cc4)s3)c(=O)c(O)c2C(=O)N1C(C)C [Example 299] | 9.8 |
| COC[C@H]1CN([C@@H](C)C2CC2)C(=O)c2c(O)c(=O)c(-c3nnc(Cc4ccc(F)cc4)s3)cn21 [Example 316] | 12 |
| CCCCOC[C@H]1CN(C(C)C)C(=O)c2c(O)c(=O)c(-c3nnc(Cc4ccc(F)cc4)s3)cn21 [Example 364] | 10 |
| CCNC(=O)[C@@]1(C)CN([C@H](C)C2CC2)C(=O)c2c(O)c(=O)c(-c3ncc(Cc4ccc(F)cc4)s3)cn21 [Example 283] | 18 |
| CCOC[C@@H]1Cn2cc(-c3ncc(Cc4ccc(F)cc4)s3)c(=O)c(O)c2C(=O)N1CC1CC1 [Example 218] | 6.5 |
| COCCOC[C@H]1Cn2cc(-c3nnc(Cc4ccc(F)cc4)s3)c(=O)c(O)c2C(=O)N1C(C)C [Example 120] | 15 |
| COCCN(C)C(=O)[C@@]1(C)CN(C(C)C)C(=O)c2c(O)c(=O)c(-c3nnc(Cc4ccc(F)cc4)s3)cn21 [Example 202] | 13 |
| COCC1Cn2cc(-c3ncc(Cc4ccc(F)cc4F)s3)c(=O)c(O)c2C(=O)N1CC(C)C (stereo not drawn) [Example 62] | 9.2 |
| COC[C@H]1CN(C(C)C)C(=O)c2c(O)c(=O)c(-c3nnc(Cc4ccc(F)c(OC)c4)s3)cn21 [Example 250] | 17 |
| CC(C)N1CC2(CCOCC2)n2cc(-c3nnc(Cc4ccc(F)cc4F)s3)c(=O)c(O)c2C1=O [Example 8] | 8.9 |
| CC(C)N1C[C@](C)(CN(C)S(C)(=O)=O)n2cc(-c3nnc(Cc4ccc(F)cc4F)s3)c(=O)c(O)c2C1=O [Example 210] | 23 |
| CCN1C[C@H](COCCOC)n2cc(-c3nnc(Cc4ccc(F)cc4F)s3)c(=O)c(O)c2C1=O [Example 125] | 11 |
| COC[C@H]1CN(C(C)C)C(=O)c2c(O)c(=O)c(-c3nnc(Cc4ccc(F)c(F)c4)s3)cn21 [Example 144] | 7.7 |
| CN(C)C(=O)[C@@]1(C)CN(C)C(=O)c2c(O)c(=O)c(-c3nnc(Cc4ccc(F)cc4F)s3)cn21 [Example 335] | 9.8 |
| CCN(C)C(=O)[C@]1(COCCOC)CN(C(C)C)C(=O)c2c(O)c(=O)c(-c3nnc(Cc4ccc(F)cc4)s3)cn21 [Example 397] | 19 |
| CCN1C(=O)c2c(O)c(=O)c(-c3nnc(Cc4ccc(F)cc4)s3)cn2C[C@@]1(C)COC [Example 270] | 9.5 |
| CC(=O)NC[C@H]1Cn2cc(-c3nnc(Cc4ccc(F)cc4F)s3)c(=O)c(O)c2C(=O)N1C(C)C [Example 140] | 5.8 |
| COCCOC[C@@H]1Cn2cc(-c3nnc(Cc4ccc(F)cc4F)s3)c(=O)c(O)c2C(=O)N1C(C)C [Example 54] | 7.5 |
| CC(C)N1C[C@@](C)(C(=O)NCC2CC2)n2cc(-c3ncc(Cc4ccc(F)cc4)s3)c(=O)c(O)c2C1=O [Example 246] | 8.4 |
| CC(C)N1C[C@H](Cn2cnnn2)n2cc(-c3nnc(Cc4ccc(F)cc4)s3)c(=O)c(O)c2C1=O [Example 359] | 4.8 |
| COC[C@H]1CN(C(C)C)C(=O)c2c(O)c(=O)c(-c3nnc(Cc4cccc(Cl)c4)s3)cn21 [Example 228] | 11 |

| SMILES | IC50 [nM] |
| --- | --- |
| CC(C)C(=O)N(C)C[C@@H]1Cn2cc(-c3nnc(Cc4ccc(F)cc4F)s3)c(=O)c(O)c2C(=O)N1C(C)C [Example 159] | 6.6 |
| CCN1C(=O)c2c(O)c(=O)c(-c3nnc(Cc4ccc(F)cc4)s3)cn2CC1(COC)COC [Example 301] | 8 |
| CC(C)N1CC(CC(=O)O)n2cc(-c3ncc(Cc4ccc(F)cc4F)s3)c(=O)c(O)c2C1=O (stereo not drawn) [Example 33] | 6.2 |
| CCN1C(=O)c2c(O)c(=O)c(-c3ncc(Cc4ccc(F)cc4)s3)cn2C[C@]1(C)C(=O)N(C)C [Example 293] | 9.6 |
| CC(C)N1CC(CC(=O)N(C)C)n2cc(-c3ncc(Cc4ccc(F)cc4F)s3)c(=O)c(O)c2C1=O (stereo not drawn) [Example 21] | 9.4 |
| COCCOC[C@@]1(C(=O)N(C)C)CN(C(C)C)C(=O)c2c(O)c(=O)c(-c3nnc(Cc4ccc(F)cc4)s3)cn21 [Example 391] | 24 |
| C[C@@]1(C(=O)N2CCC2)CN(C2CC2)C(=O)c2c(O)c(=O)c(-c3ncc(Cc4ccc(F)cc4)s3)cn21 [Example 268] | 15 |
| CCNC(=O)[C@@]1(C)CN(C(C)C)C(=O)c2c(O)c(=O)c(-c3nnc(Cc4ccc(F)cc4)s3)cn21 [Example 180] | 10 |
| CCN1C(=O)c2c(O)c(=O)c(-c3nnc(Cc4ccc(F)cc4)s3)cn2C[C@@H]1[C@@H](C)OC [Example 395] | 10 |
| C[C@@H]1Cn2cc(-c3nnc(Cc4ccc(F)cc4)s3)c(=O)c(O)c2C(=O)N1CC1CC1 [Example 279] | 6.3 |
| CCN1C(=O)c2c(O)c(=O)c(-c3nnc(Cc4ccc(F)cc4F)s3)cn2C[C@@H]1COC [Example 114] | 8.1 |
| CNC(=O)CC1Cn2cc(-c3nnc(Cc4ccc(F)cc4F)s3)c(=O)c(O)c2C(=O)N1C(C)C (stereo not drawn) [Example 81] | 7.5 |
| CC(C)N1C[C@H](Cn2cncn2)n2cc(-c3nnc(Cc4ccc(F)cc4)s3)c(=O)c(O)c2C1=O [Example 358] | 12 |
| CN(C)C(=O)[C@@]1(C)CN(C(C)(C)C)C(=O)c2c(O)c(=O)c(-c3nnc(Cc4ccc(F)cc4)s3)cn21 [Example 181] | 14 |
| CCNC(=O)CC1CN(C2CC2)C(=O)c2c(O)c(=O)c(-c3ncc(Cc4ccc(F)cc4F)s3)cn21 (stereo not drawn) [Example 165] | 7.4 |
| CCN1C(=O)c2c(O)c(=O)c(-c3nnc(Cc4ccc(F)cc4F)s3)cn2C[C@H]1COC [Example 102] | 7.1 |
| CCN1C(=O)c2c(O)c(=O)c(-c3nnc(Cc4ccc(F)cc4)s3)cn2[C@@H](COC)[C@H]1C [Example 258] | 9.3 |
| CC(C)N1C(=O)c2c(O)c(=O)c(-c3nnc(Cc4ccc(F)cc4)s3)cn2C[C@@]1(C)C(=O)N1CCCC1 [Example 306] | 10 |
| CC(C)N1C(=O)c2c(O)c(=O)c(-c3nnc(Cc4ccc(F)cc4F)s3)cn2CC1C(=O)O (stereo not drawn) [Example 50] | 6.4 |
| COC[C@@H]1[C@H](C)n2cc(-c3nnc(Cc4ccc(F)cc4)s3)c(=O)c(O)c2C(=O)N1C(C)C [Example 232] | 15 |
| CC[C@@H]1Cn2cc(-c3nnc(Cc4ccc(F)cc4)s3)c(=O)c(O)c2C(=O)N1CC1CC1 [Example 303] | 5.8 |
| CC(C)N1C(=O)c2c(O)c(=O)c(-c3nnc(Cc4ccc(F)cc4F)s3)cn2CC1CC(=O)N(C)C (stereo not drawn) [Example 75] | 9.1 |
| COCCOC[C@H]1CN(CC(C)C)C(=O)c2c(O)c(=O)c(-c3nnc(Cc4ccc(F)cc4F)s3)cn21 [Example 45] | 11 |
| CCNC(=O)[C@@]1(C)CN(CC)C(=O)c2c(O)c(=O)c(-c3nnc(Cc4ccc(F)cc4)s3)cn21 [Example 201] | 9.5 |
| COC1CN(C(=O)[C@@]2(C)CN([C@@H](C)C3CC3)C(=O)c3c(O)c(=O)c(-c4ncc(Cc5ccc(F)cc5)s4)cn32)C1 [Example 274] | 12 |
